In patent publication US7012090B1, “Pyranoindoles for treating glaucoma” (Alcon, Inc., priority 2000, dated 2006):
Structures can show the parent of a compound that is named as a salt.

How the values were obtained:
brain 5-HT2 receptors = brain 5-HT2 receptors (Rattus norvegicus, UniProt P14842); assay: 5HT2 Receptor Binding Assay ([125I]DOI competition); details: inhibition of [125I]DOI binding, rat or human cerebral cortex homogenates
Method: 5HT2 Receptor Binding Assay
Aliquots of post mortem rat or human cerebral cortex homogenates (400 μl) dispersed in 50 mM TrisHCl buffer (pH 7.4) are incubated with [^125I]DOI (80 pM final) in the absence or presence of methiothepin (10 μM final) to define total and non-specific binding, respectively, in a total volume of 0.5 ml. The assay mixture is incubated for 1 hour at 23° C. in polypropylene tubes and the assays terminated by rapid vacuum filtration over Whatman GF/B glass fiber filters previously soaked in 0.3% polyethyleneimine using ice-cold buffer. Test compounds (at different concentrations) are substituted for methiothepin. Filter-bound radioactivity is determined by scintillation spectrometry on a beta counter. The data are analyzed using a non-linear, iterative curve-fitting computer program [Trends Pharmacol. Sci., 16, 413 (1995)] to determine the compound affinity parameter. The concentration of the compound needed to inhibit the [^125I]DOI binding by 50% of the maximum is termed the IC50 value.

5-HT2 receptor = target: T1, 5-HT2 receptor (Rattus norvegicus, UniProt P14842); assay: 5-HT2 Functional Assay: Phosphoinositide (PI) Turnover Assay; assay type: cell-based; details: for EC50: [3H]inositol phosphate production in A7r5 rat vascular smooth muscle cells; for Emax: A7r5 cells, relative to 5-HT set at 100%, read-out: Efficacy (Emax, %)
T1 construct: [^3H]myo-inositol-labeled A7r5 rat vascular smooth muscle cells; endogenous in cells; host or cells: A7r5 rat vascular smooth muscle cells
T1 sequence (P14842 whole entry): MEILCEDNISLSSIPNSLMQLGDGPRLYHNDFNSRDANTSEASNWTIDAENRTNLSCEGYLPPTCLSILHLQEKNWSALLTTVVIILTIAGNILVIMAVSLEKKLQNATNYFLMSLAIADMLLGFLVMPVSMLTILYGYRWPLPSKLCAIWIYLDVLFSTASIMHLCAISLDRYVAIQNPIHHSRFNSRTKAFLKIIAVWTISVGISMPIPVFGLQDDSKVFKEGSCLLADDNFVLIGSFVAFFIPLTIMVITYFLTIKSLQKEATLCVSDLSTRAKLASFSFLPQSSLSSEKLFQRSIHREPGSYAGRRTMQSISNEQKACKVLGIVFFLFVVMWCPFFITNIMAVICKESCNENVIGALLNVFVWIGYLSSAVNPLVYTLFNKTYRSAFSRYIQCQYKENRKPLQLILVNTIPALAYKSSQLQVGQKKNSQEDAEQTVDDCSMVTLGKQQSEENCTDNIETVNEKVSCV
Method: 5-HT2 Functional Assay: Phosphoinositide (PI) Turnover Assay
The relative agonist activity of serotonergic compounds at the 5-HT2 receptor can be determined in vitro using the ability of the compounds to stimulate the production of [^3H]inositol phosphates in [^3H]myo-inositol-labeled A7r5 rat vascular smooth muscle cells by their ability to activate the enzyme phospholipase C. These cells are grown in culture plates, maintained in a humidified atmosphere of 5% CO2 and 95% air and fed semi-weekly with Dulbecco's modified Eagle medium (DMEM) containing 4.5 g/l glucose and supplemented with 2 mM glutamine, 10 μg/ml gentamicin, and 10% fetal bovine serum. For the purpose of conducting the phosphoinositide (PI) turnover experiments, the A7r5 cells are cultured in 24-well plates as previously [J. Pharmacol. Expt. Ther., 286, 411 (1998)]. Confluent cells are exposed for 24-30 hrs to 1.5 μCi [^3H]-myo-inositol (18.3 Ci/mmol) in 0.5 ml of serum-free medium. Cells are then rinsed once with DMEM/F-12 containing 10 mM LiCl prior to incubation with the test agent (or solvent as the control) in 1.0 ml of the same medium for 1 hr at 37° C., after which the medium is aspirated and 1 ml of cold 0.1 M formic acid added to stop the reaction. The chromatographic separation of [^3H]-inositol phosphates ([^3H]-IPs) on an AG- 1-X8 column is performed as previously described [J. Pharmacol. Expt. Ther. 286, 411 (1998)] with sequential washes with H2O and 50 mM ammonium formate, followed by elution of the total [^3H]-IPs fraction with 1.2 M ammonium formate containing 0.1 M formic acid. The eluate (4 ml) is collected, mixed with 15 ml scintillation fluid, and the total [^3H]-IPs determined by scintillation counting on a beta-counter. Concentration-response data are analyzed by the sigmoidal fit function of the Origin Scientific Graphics software (Microcal Software, Northampton, Mass.) to determine agonist potency (EC50 value) and efficacy (Emax). Serotonin (5-HT) is used as a positive control (standard) agonist compound and the efficacy of test compounds is compared to that of 5-HT (set at 100%). The concentration of the compound needed to stimulate the production of [^3H]-IPs by 50% of the maximum response is termed the EC50 value.

[1] = system: Lasered (Hypertensive) Eyes of Conscious Cynomolgus Monkeys; assay: Acute IOP Response in Lasered (Hypertensive) Eyes of Conscious Cynomolgus Monkeys; assay type: in vivo, Cynomolgus monkey; details: lasered eye
Method: Acute IOP Response in Lasered (Hypertensive) Eyes of Conscious Cynomolgus Monkeys
Intraocular pressure (IOP) was determined with an Alcon Pneumatonometer after light corneal anesthesia with 0.1% proparacaine. Eyes were washed with saline after each measurement. After a baseline IOP measurement, test compound was instilled in one 30 μL aliquot to the right eyes only of nine cynomolgus monkeys. Vehicle was instilled in the right eyes of six additional animals. Subsequent IOP measurements were taken at 1, 3, and 6 hours. A compound is considered efficacious in this model of ocular hypertension if there is a decrease in the baseline IOP of the lasered eye (O.D.) of at least 20% following topical administration.

[2] = 1 hour after dose, 300 μg topical
[3] = 3 hours after dose, 300 μg topical
[4] = 6 hours after dose, 300 μg topical

brain 5-HT2 receptors, sequence (P14842 whole entry): as above

Compound	melting point	IC50 (brain 5-HT2 receptors)	EC50 (5-HT2 receptor)	Percent IOP Reduction ± SEM ([1]; 1 hour after dose, 100 μg topical)	Percent IOP Reduction ± SEM ([1]; 3 hours after dose, 100 μg topical)	Percent IOP Reduction ± SEM ([1]; 6 hours after dose, 100 μg topical)	Emax (5-HT2 receptor)	Percent IOP Reduction ± SEM [1, 2]	Percent IOP Reduction ± SEM [1, 3]	Percent IOP Reduction ± SEM [1, 4]
CC(N)Cc1cn(C)c2ccc3c(c12)CCCO3 (stereo not drawn) (as salt: hydrochloride) [Example 1, 1-Methyl-2-(3-methyl3,7,8,9-tetrabydro-pyrano[3,2-e]indol-1-yl)-ethylamine hydrochloride]	214 to 217 °C	–	–	–	–	–	–	–	–	–
COc1cc(C[C@@H](C)N)c(OC)cc1I [(R)-DOI, reference compound]	–	0.46 nM	27.7 nM	11.0 ± 4.98%	25.3 ± 2.97%	34.4 ± 4.98%	–	–	–	–
CC(N)Cc1cn(C)c2ccc3c(c12)CCCO3 (stereo not drawn) [Example 1, 1-Methyl-2-(3-methyl3,7,8,9-tetrabydro-pyrano[3,2-e]indol-1-yl)-ethylamine hydrochloride]	–	–	189 nM	–	–	–	119%	18.8 ± 3.31%	28.0 ± 5.20%	26.1 ± 5.35%
CC(N)Cc1c[nH]c2ccc3c(c12)CCCO3.Cl (stereo not drawn) [Example 3, 1-Methyl-2-(3,7,8,9-tetrahydro-pyrano[3,2-e]indol-1-yl)-ethylamine hydrochloride]	–	–	116 nM	–	–	–	81%	16.0 ± 3.79%	28.0 ± 5.49%	22.9 ± 6.70%
C[C@@H](N)Cc1c[nH]c2ccc3c(c12)CCCO3 [Example 4, (R)-1-Methyl-2-(3,7,8,9-tetrahydro-pyrano[3,2-e]indol-1-yl)ethylamine hydrochloride]	–	–	111 nM	–	–	–	109%	–	–	–
CC(N)Cc1c[nH]c2ccc3c(c12)CC(O)CO3.Cl (stereo not drawn) [Example 6, 1-(2-Aminopropyl)-3,7,8,9-tetrahydro-pyrano[3,2-e]indol-8-ol hydrochloride]	187 to 192 °C	–	300 nM	–	–	–	92%	–	–	–
